Consider 2 molecules from patent US20230255939A1, “Antimicrobial Agent for Non-Human Animal” (ISHIHARA SANGYO KAISHA, LTD, priority 2020, published 2023).

Converted amounts (≈) assume the structure as drawn. Where two headings read alike, the source gives them in different places.

What all share (type): cell-based
In assay [1] the test system is Malassezia pachydermatis (IFM56528). Put plainly: Antifungal activity test, inhibitory concentration by WST-8 viability in 96-well plate (Test Example 11). Particulars: M. pachydermatis IFM56528, 32° C. for 72 hours; for MIC: viability 0%, read-out: Inhibitory concentration MIC100; for MIC50: viability 50%. On the procedure: Test Example 11: Antifungal Activity Test
Test Compounds: Compound No. 1 and Compound No. 6
Test Microbial Strain: Malassezia Pachydermatis (IFM56528)
The Malassezia microbe (Malassezia pachydermatis) cultured for 5 to 7 days in a Sabouraud dextrose medium (1% peptone, 4% dextrose) was suspended in physiological saline and a Malassezia microbe suspension was prepared in such a way as to have an absorbance of 0.0025 at 600 nm. The microbe suspension was placed in a 96-well plate at 190 µL/well, and 10 µL of the test compound dissolved in DMSO was added thereto in such a way as to provide a final concentration of 500, 250, 125, 62.5, 31.25, 16, 8, 4, 2, 1, or 0.5 ppm, and the 96-well plate was subjected to culturing at 32° C. for 72 hours. After culturing, 20 µL each of WST-8 (viable cell counting reagent, manufactured by Nacalai Tesque, Inc.) was added, and the 96-well plate was kept warm at 32° C. for 5 hours to develop a color. The absorbance at 450 nm was measured using a microplate reader (SpectraMax M2, manufactured by Molecular Devices, LLC). The absorbance of a well to which the test compound was added (absorbance in the inventive plot) and the absorbance of a well in the solvent to which the test compound was not added (absorbance in the non-agent treated plot) were measured, the viability (%) of the Malassezia microbe was determined according to the following expression, and the agent concentration at which the viability was 0% was defined as the minimum inhibitory concentration (MIC100). Further, the agent concentration at which the viability was 50% was defined as the half inhibitory concentration (MIC50).
[…] = [(absorbance in non-agent treated plot - absorbance in inventive plot)/absorbance in non-agent treated plot] × 100
For orientation: Formazan colour is commonly taken as a measure of viable cells.

Assay [2] has as its system Malassezia pachydermatis (IFM56528 strain). Put plainly: Antimicrobial activity test: colony formation inhibition after 1 minute contact (Test Examples 1 and 2). The conditions noted are these: M. pachydermatis IFM56528, final concentration 500 ppm, then culturing at 32° C. for 72 hours, read-out: Colony formation inhibition rate (%). On the procedure:
Test microbial strain: Malassezia pachydermatis (IFM56528 strain, strain obtained from Chiba University) The Malassezia microbe (Malassezia pachydermatis) cultured for 5 to 7 days in a Sabouraud medium (1% peptone, 4% dextrin, 1.5% agar) supplemented with 0.5% of Tween 40 (polyoxyethylene sorbitan monopalmitate: manufactured by Kanto Chemical Co., Inc.) was suspended in physiological saline and a suspension thereof was prepared in such a way as to have an absorbance of 0.25 at 550 nm. […] Colony formation inhibition rate (%) = [(number of colonies in non-agent treated plot - number of colonies in inventive plot)/number of colonies in non-agent treated plot] × 100 Test compound: Compound No. 1 (final concentration of 500 ppm) Test microbial strains: Malassezia pachydermatis (IFM56528 strain), M. furfur (IMF55951 strain), M. sympodialis (IMF48588 strain), M. globosa (IMF51946 strain), and M. restricta (IMF55992 strain) The colony formation inhibition rate for each of the test strains was determined by the same method as in Test Example 1.

Assay [3] has as its system Microsporum canis (IFM63627). As to the kind of experiment: Antifungal activity test, minimum inhibitory concentration (Test Example 7). Particulars: Sabouraud medium, 32° C. for 72 hours, read-out: Minimum inhibitory concentration (MIC100). Here is the method:
Test Example 7: Antifungal Activity Test
(§1) Test Compound: Compound No. 6
(§2) Test Microbial Strain: Microsporum Canis (IFM63627)
The antifungal activity was studied by partially modifying the method of Test Example 5. Microsporum canis was cultured at 32° C. for 168 hours in a ⅒ Sabouraud medium to form spores, then 10 mL of physiological saline (Otsuka Normal Saline; containing 9 g of sodium chloride in 1000 mL) was added directly onto the medium, and the surface was rubbed using a disposable loop (type 1 (1 µL)) to recover a spore suspension containing hyphae. The spore suspension containing hyphae was filtered through a cell strainer (φ40 µm). The spores were recovered from the filtrate by centrifugation (3500 rpm, 5 minutes) and washed twice with physiological saline, and then a spore suspension was prepared (1 × 10^7 spores/mL). 10 µL of the spore suspension was inoculated into a Sabouraud medium to which the test compound dissolved in DMSO was added to have a predetermined concentration. Microsporum canis was cultured at 32° C. for 72 hours, then the presence or absence of colony growth was investigated, and the minimum inhibitory concentration (MIC100) was determined.

The test system of assay [4] is Microsporum canis (IFM63627). As to the kind of experiment: Antifungal activity test, minimum fungicidal concentration on spores (Test Example 8). The conditions noted are these: read-out: Minimum fungicidal concentration (MFC100). On the procedure: Test Example 8: Antifungal Activity Test
as §1, §2
Microsporum canis was cultured at 32° C. for 168 hours in a ⅒ Sabouraud medium to form spores, then 10 mL of physiological saline (Otsuka Normal Saline; containing 9 g of sodium chloride in 1000 mL) was added directly onto the medium, and the surface was rubbed using a disposable loop (type 1 (1 µL)) to recover a spore suspension containing hyphae. The spore suspension containing hyphae was filtered through a cell strainer (φ40 µm). The spores were recovered from the filtrate by centrifugation (3500 rpm, 5 minutes) and washed twice with physiological saline, and then a spore suspension was prepared (1 × 10^7 spores/mL). 10 µL of the spore suspension was inoculated into 90 µL of physiological saline to which compound No. 6 dissolved in DMSO was added to have a predetermined concentration. […] The 10-µL spore suspension was spotted onto a Sabouraud medium and subjected to culturing at 32° C. for 72 hours, the presence or absence of colony growth was investigated, and the minimum fungicidal concentration (MFC100) was determined.

Usually MIC90 stands for the lowest concentration that inhibits either 90% of growth or 90% of the strains tested, depending on the study. The low end stands for greater potency, the high end for weaker potency. As a reminder, the MIC50 is an inhibitory concentration at the 50% level, which refers to growth in some studies and to a panel of isolates in others. As usually defined, the inhibition is the relative decrease from the control value, in per cent. Consider `Cc1ccc(-c2nc(C#N)[nH]c2Cl)cc1` [Compound No. 1, 5-Chloro-4-(4-methylphenyl)-1H-imidazole-2-carbonitrile], for which, in assay [1], the MIC90 was found to be 16 µg/mL (≈ 73.5 µM), the MIC is 16 µg/mL (≈ 73.5 µM) and the MIC50 worked out at 8 µg/mL (≈ 36.8 µM). Also, in assay [2], the inhibition at 500 ppm stood at 100%.
Take `Cc1ccc(-c2nc(C#N)[nH]c2Cl)cc1Cl` [Compound No. 6, 5-chloro-4-(3-chloro-4-methylphenyl)-1H-imidazole-2-carbonitrile]: the values for the MIC in assay [3] and in assay [1] were 5 µg/mL (≈ 19.8 µM) and 4 µg/mL (≈ 15.9 µM), respectively. For the same molecule, the MFC stood at 50 µg/mL (≈ 198 µM) in assay [4] (treatment time 24 Hours) and 10 µg/mL (≈ 39.7 µM) in assay [4] (treatment time 96 Hours). Further, the MIC90 in assay [1] stood at 4 µg/mL (≈ 15.9 µM). The same molecule registered an MIC50 in assay [1] of 2 µg/mL (≈ 7.93 µM).
